Measured values from patent US8202857B2, “1,3-oxazepan-2-one and 1,3-diazepan-2-one inhibitors of 11β-hydroxysteroid dehydrogenase 1” (Vitae Pharmaceuticals, Inc., priority 2008, dated 2012).
pIC50: −log10 of the molar value.

Target: T1, human 11β-HSD1 (Homo sapiens, UniProt P28845)
T1 construct: expressed in transfected cells; host or cells: CHO cells (microsomes)
Assay: Inhibition of a microsomal preparation of 11β-HSD1 (SPA), Biological Test Example 1
Format: biochemical
Conditions: microsomes from CHO cells overexpressing human 11β-HSD1; for pIC50: read-out: IC50 Range^a; for inhibition at 0.1 µM: read-out: Average % inhibition at 100 nM, 100 nM; for Average % inhibition at 100 nM: 0.1 µM
Procedure: All reactions were carried out at rt in 96 well clear flexible PET Microbeta plates (PerkinElmer). […] After a 10 minute pre-incubation, 50 μL of enzyme solution containing microsomes isolated from CHO cells overexpressing human 11β-HSD1 (10-20 μg/ml of total protein) was added, and the plates were incubated for 90 minutes at rt. The reaction was stopped by adding 50 μl of the SPA beads suspension containing 10 μM 18β-glycyrrhetinic acid, 5 mg/ml protein A coated YSi SPA beads (GE Healthcare) and 3.3 μg/ml of anti-cortisol antibody (East Coast Biologics) in Superblock buffer (Bio-Rad). The plates were shaken for 120 minutes at rt, and the SPA signal corresponding to [^3H]cortisol was measured on a Microbeta plate reader.

T1 sequence (P28845 whole entry): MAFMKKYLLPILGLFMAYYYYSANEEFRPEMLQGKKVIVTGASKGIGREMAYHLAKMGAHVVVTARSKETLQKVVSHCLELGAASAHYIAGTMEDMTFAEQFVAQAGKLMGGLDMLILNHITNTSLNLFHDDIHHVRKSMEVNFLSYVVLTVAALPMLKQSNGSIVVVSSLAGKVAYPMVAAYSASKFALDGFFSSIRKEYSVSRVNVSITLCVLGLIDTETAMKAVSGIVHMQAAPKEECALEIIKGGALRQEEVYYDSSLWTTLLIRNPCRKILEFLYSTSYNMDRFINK

`C[C@@H](c1ccc(-c2ccn(C)c(=O)c2)cc1)N1CCC[C@](CC(C)(C)O)(c2ccccc2)NC1=O` [EXAMPLE 11, (S)-4-(2-hydroxy-2-methylpropyl)-1-((S)-1-(4-(1-methyl-2-oxo-1,2-dihydropyridin-4-yl)phenyl)ethyl)-4-phenyl-1,3-diazepan-2-one] was tested, and the pIC50 was over 7.00 and the inhibition at 0.1 µM was 98.3%.

In the case of `C=C(C)C[C@]1(c2ccccc2)CCCN([C@@H](C)c2ccc(-c3ccc(=O)n(C)c3)cc2)C(=O)N1` [EXAMPLE 10, (S)-1-((S)-1-(4-(1-methyl-6-oxo-1,6-dihydropyridin-3-yl)phenyl)ethyl)-4-(2-methylallyl)-4-phenyl-1,3-diazepan-2-one], the pIC50 was over 7.00 and the inhibition at 0.1 µM was 97.1%.

Work on `C=C(C)C[C@@]1(c2ccccc2)CCCN([C@@H](C)c2ccc(Br)cc2)C(=O)O1` (single isomer, unassigned) [EXAMPLE 14 Isomer 2] yielded a pIC50 of over 7.00 and an inhibition at 0.1 µM of 111%.

In the case of `C[C@@H](c1ccc(Br)cc1)N1CCC[C@@](CCO)(c2ccccc2)NC1=O` (single isomer, unassigned) [EXAMPLE 3 Isomer 1], the “Average % inhibition at 100 nM” value was 85.8% and the pIC50 was over 7.00.

In the case of `C[C@@H](c1ccc(Br)cc1)N1CCC[C@](CC(C)(C)O)(c2ccccc2)OC1=O` (single isomer, unassigned) [EXAMPLE 15 Isomer 1], the pIC50 was over 7.00 and the inhibition at 0.1 µM was 86.2%.

`C[C@@H](c1ccc(O)cc1)N1CCCC(CC(C)(C)O)(c2ccccc2)OC1=O` (single isomer, unassigned) [EXAMPLE 17 Isomer 1] was tested, and the “Average % inhibition at 100 nM” value was 41.6% and the pIC50 was under 7.00.

With `C=C(C)C[C@]1(c2ccccc2)CCCN([C@@H](C)c2ccc(-c3ccn(C)c(=O)c3)cc2)C(=O)N1` [EXAMPLE 9, (S)-1-((S)-1-(4-(1-methyl-2-oxo-1,2-dihydropyridin-4-yl)phenyl)ethyl)-4-(2-methylallyl)-4-phenyl-1,3-diazepan-2-one] the pIC50 was over 7.00 and the inhibition at 0.1 µM was 95.2%.

`C=C(C)C[C@]1(c2ccccc2)CCCN([C@@H](C)c2ccc(Br)cc2)C(=O)O1` (single isomer, unassigned) [EXAMPLE 14 Isomer 1] gave a pIC50 of over 7.00 and an inhibition at 0.1 µM of 97.4%.

With `C[C@@H](c1ccc(Br)cc1)N1CCC[C@](CCO)(c2ccccc2)NC1=O` (single isomer, unassigned) [EXAMPLE 3 Isomer 2] the pIC50 was over 7.00 and the inhibition at 0.1 µM was 97.6%.

Work on `C[C@@H](c1ccc(Br)cc1)N1CCC[C@](CCCO)(c2ccccc2)NC1=O` [EXAMPLE 1, (S)-1-((S)-1-(4-bromophenyl)ethyl)-4-(3-hydroxypropyl)-4-phenyl-1,3-diazepan-2-one] yielded a pIC50 of over 7.00 and an inhibition at 0.1 µM of 95.6%.

For `C[C@@H](c1ccc(-c2ccn(C)c(=O)c2)cc1)N1CCC[C@](CC(C)(C)O)(c2ccccc2)OC1=O` [EXAMPLE 19, (S)-7-(2-hydroxy-2-methylpropyl)-3-((S)-1-(4-(1-methyl-2-oxo-1,2-dihydropyridin-4-yl)phenyl)ethyl)-7-phenyl-1,3-oxazepan-2-one], the pIC50 was over 7.00 and the inhibition at 0.1 µM was 80.3%.

For `COc1ccc(-c2ccc([C@H](C)N3CCC[C@](CCO)(c4ccccc4)NC3=O)cc2)cn1` [EXAMPLE 6, (S)-4-(2-hydroxyethyl)-1-((S)-1-(4-(6-methoxypyridin-3-yl)phenyl)ethyl)-4-phenyl-1,3-diazepan-2-one], the pIC50 was over 7.00 and the inhibition at 0.1 µM was 95.5%.

`CC(O)C[C@]1(c2ccccc2)CCCN([C@@H](C)c2ccc(Br)cc2)C(=O)N1` (stereo partly drawn) [EXAMPLE 4, (4S)-1-((S)-1-(4-bromophenyl)ethyl)-4-(2-hydroxypropyl)-4-phenyl-1,3-diazepan-2-one] was tested, and the pIC50 was over 7.00 and the inhibition at 0.1 µM was 95.8%.

Work on `C[C@@H](c1ccc(Br)cc1)N1CCC[C@@](CC(C)(C)O)(c2ccccc2)OC1=O` (single isomer, unassigned) [EXAMPLE 15 Isomer 2] yielded a pIC50 of under 7.00 and an inhibition at 0.1 µM of 31.7%.

`C[C@@H](c1ccc(-c2ccn(C3CC3)c(=O)c2)cc1)N1CCC[C@](CC(C)(C)O)(c2ccccc2)OC1=O` [EXAMPLE 18, (S)-3-((S)-1-(4-(1-cyclopropyl-2-oxo-1,2-dihydropyridin-4-yl)phenyl)ethyl)-7-(2-hydroxy-2-methylpropyl)-7-phenyl-1,3-oxazepan-2-one] gave a pIC50 of over 7.00 and an inhibition at 0.1 µM of 86.8%.

Compound `C[C@@H](c1ccc(-c2ccc(=O)n(C)c2)cc1)N1CCC[C@](CC(C)(C)O)(c2ccccc2)NC1=O` [EXAMPLE 12, (S)-4-(2-hydroxy-2-methylpropyl)-1-((S)-1-(4-(1-methyl-6-oxo-1,6-dihydropyridin-3-yl)phenyl)ethyl)-4-phenyl-1,3-diazepan-2-one] has a pIC50 of over 7.00 and an inhibition at 0.1 µM of 92.9%.

For `C[C@@H](c1ccc(Br)cc1)N1CCC[C@](CCC(N)=O)(c2ccccc2)NC1=O` [EXAMPLE 5, 3-((S)-1-((S)-1-(4-bromophenyl)ethyl)-2-oxo-4-phenyl-1,3-diazepan-4-yl)propanamide], the pIC50 was over 7.00 and the inhibition at 0.1 µM was 93.7%.

Work on `C[C@@H](c1ccc(Br)cc1)N1CCC[C@](CC(C)(C)O)(c2ccccc2)NC1=O` [EXAMPLE 8, (S)-1-((S)-1-(4-bromophenyl)ethyl)-4-(2-hydroxy-2-methylpropyl)-4-phenyl-1,3-diazepan-2-one] yielded a pIC50 of over 7.00 and an inhibition at 0.1 µM of 97.5%.

Compound `C=C(C)C[C@]1(c2ccccc2)CCCN([C@@H](C)c2ccc(Br)cc2)C(=O)N1` [EXAMPLE 7, (S)-1-((S)-1-(4-bromophenyl)ethyl)-4-(2-methylallyl)-4-phenyl-1,3-diazepan-2-one] has a pIC50 of over 7.00 and an inhibition at 0.1 µM of 93%.

For `C[C@@H](c1ccc(O)cc1)N1CCCC(CC(C)(C)O)(c2ccccc2)OC1=O` (single isomer, unassigned) [EXAMPLE 17 Isomer 2], the “Average % inhibition at 100 nM” value was 68.5% and the pIC50 was over 7.00.

For `C=CC[C@]1(c2ccccc2)CCCN([C@@H](C)c2ccc(Br)cc2)C(=O)N1` (single isomer, unassigned) [EXAMPLE 2 Isomer 2], the pIC50 was over 7.00 and the inhibition at 0.1 µM was 96.2%.

Compound `C[C@@H](c1ccc(-c2ccn(C3CC3)c(=O)c2)cc1)N1CCC[C@](CC(C)(C)O)(c2ccccc2)NC1=O` [EXAMPLE 13, (S)-1-((S)-1-(4-(1-cyclopropyl-2-oxo-1,2-dihydropyridin-4-yl)phenyl)ethyl)-4-(2-hydroxy-2-methylpropyl)-4-phenyl-1,3-diazepan-2-one] has a pIC50 of over 7.00 and an inhibition at 0.1 µM of 94.2%.

Work on `C[C@@H](c1ccc(-c2ccc(=O)n(C3CC3)c2)cc1)N1CCC[C@](CC(C)(C)O)(c2ccccc2)NC1=O` [EXAMPLE 20, (S)-1-((S)-1-(4-(1-cyclopropyl-6-oxo-1,6-dihydropyridin-3-yl)phenyl)ethyl)-4-(2-hydroxy-2-methylpropyl)-4-phenyl-1,3-diazepan-2-one] yielded a pIC50 of over 7.00 and an inhibition at 0.1 µM of 97.4%.
